From patent US20080064034A1, “Multi-Cellular Test Systems” (FRAUNHOFER-GESELLSCHAFT ZUR FÖRDERUNG DER ANGEWAND, priority 2004, published 2008)

Test system: organoid bodies
Assay: Western blot of the liver protein α-fetoprotein in homogenates of organoid bodies incubated with HGF
Type: cell-based
Conditions: 40 ng/ml HGF
Protocol: In this example organoid bodies were exposed for a time period of 1 to 2 days to different micromolar concentrations of puromycin, an active substance that inhibits translation. Then, the size of the treated organoid bodies was compared with those of an untreated control (see comparative micrograph in FIG. 5A). In a second detection method the organoids were taken up in 10 ml lysis buffer containing 7.5 ml PBS, 2.5 ml NP-40 and 1 mM PEFA block, stored overnight in a refrigerator at 4° C. and then homogenized in minihomogenizers for Eppendorf tubes. The homogenate was centrifuged, the supernatant removed and resolved electrophoretically according to standard methods and the gel subjected to a Western immunoblot. […] The first four bands are produced by the different active amounts of puromycin, the last two show the amount of vigilin in the untreated organoids; the same amount of total protein was always applied per track.
The organoid bodies were incubated with 40 ng/ml HGF (hepatocyte growth factor) or without HFG for 7, 11 14 and 17 days. Then, the organoid bodies were homogenized as described in example 7 and subjected to a Western blot assay. The production of the liver protein α-fetoprotein was examined (FIG. 7).

Question: What does the source list for “HGF: hepatocyte growth factor, a differentiation factor for increased formation of cardiac and liver cells”?
Answer: production of the liver protein α-fetoprotein (after 7 and 11 days of incubation): distinct synthesis of the fetoprotein can be observed; production of the liver protein α-fetoprotein (longer exposure time (14 and 17 days)): tends to inhibit the production again
